According to patent US10285981B2, “Compositions and methods for treating amyotrophic lateral sclerosis in responders” (KNOPP BIOSCIENCES LLC, priority 2013, dated 2019):
Like-named read-outs stand apart in the source and are kept apart here.

Tests used:
ALS subjects [1] = settings: human, in vivo
ALS subjects [2] = settings: even after prolonged treatment; cited from earlier work
subjects with ALS [3] = tested on: subjects with ALS
From the text: Subjects with possible, probable, probable laboratory-supported, or definite ALS as defined by the El Escorial criteria who had ALS symptoms for ≤24 months at the time of entry into the study and a slow vital capacity of ≥65% of predicted were eligible to participate in this study. This study is described in more detail in the Examples.
Eligible subjects were between 18-80 years of age with a clinical diagnosis of possible, laboratory-supported probable, probable, or definite ALS, either familial or sporadic, in accordance with the revised El Escorial criteria. Subjects were required to have had onset of first ALS symptoms ≤24 months before Day 1 and an upright vital capacity of ≥65% of predicted value for age, height, and gender at screening. […] Subjects had to be able to swallow oral medications on Day 1 (FIG. 1).
Clinic visits and telephone calls/home visits may have occurred on alternating months. The primary efficacy analysis was a Combined Assessment of Function and Survival (CAFS), based on changes from baseline in the ALS Functional Rating Score-Revised (ALSFRS-R) scores or time to death using follow-up data through 12 months. […] Efficacy data was evaluated using 2-sided tests with α=0.05 for the primary and secondary endpoints. Adverse events and other safety indices were monitored throughout the study.
The primary endpoint of the method of Example 2 was the Combined Assessment of Function and Survival (CAFS), a joint-rank test that is a valid statistical approach for analyzing functional outcomes adjusted for mortality. The CAFS ranks subjects' outcomes based on both time to death and change from baseline in ALSFRS-R score using follow-up data through 12 months. CAFS is predicated on the comparison of outcomes of each subject to all other subjects in the study. A higher rank is assigned to subjects who survive versus those who die, and the change from baseline in the ALSFRS-R is used to rank each survivor. A higher CAFS ranking indicates a better global clinical outcome.
The ALSFRS-R score, VC, and McGill QoL-SIS scores were summarized by treatment group with the rate of change estimate derived from a linear mixed-effects model. Linear decline of the ALSFRS-R score over time has been shown previously. […] A mixed-model analysis was used to fit a model that included time, treatment group, and the interaction between time and treatment group simultaneously. The estimated coefficient of time, the slope, or rate of change, for each treatment group was used to test for differences between the treatment groups. Coefficient of time estimate along with its standard error was reported.

subjects with ALS [4] = settings: for decline in levels of serum creatinine: Part One; for mean decline in serum creatinine: Week 28
From the text: Therefore, the Part 2, Week 28 visit was pre-specified as the primary time-point for all Part 2 data analyses.

subjects with ALS [5] = tested on: subjects with ALS; remark: listed apart in the source
From the text: Response is defined according to two criteria:
This analysis examined subgroup definitions based on both single and dual attribute criteria, and evaluated the performance of each subgroup with respect the two criteria above. To facilitate ranking of subgroups, we have defined a scoring metric which aggregates these two-dimensional scores into a single scalar called “score” in our report files. Larger scores are better: scores increase when mortality rates decrease, and when ALSFRS-R changes from baseline become more positive (i.e. score decreases are reduced). This scoring scheme is somewhat arbitrary; it merely serves to guide our maximization process and provide convenient rankings of subgroup quality. The definition of the score could certainly be altered to reflect different priorities on treatment effects with respect to mortality or disease progression. For this reason, we provide a complete spreadsheet of results, which can be re-sorted and re-ordered according to arbitrary balancing criteria.
1. Mortality for patients is defined by the value of the “end_status_study” field. Patients are deemed dead if and only if the value of this field is “DEATH”; any other value is interpreted as survival;
2. Disease symptom progression is measured in terms of the change in total ALSFRS-R score from baseline, as reported in the “change from baseline” attribute of each patient. Specifically, we take the value of “change from baseline” that is reported at the final measurement time for each patient.;
4. We impose minimum subgroup size filters on our results to exclude promising signals which arise due to sampling artifacts, or which would be too narrow for consideration in future studies. Analyses were run for minimum group sizes of both 50 patients (data not shown) and 100 patients (i.e. for a cutoff of N, we require at least N patients in that subgroup for both the treated and untreated groups).

rodents [6] = settings: approximately
rodents [7] = settings: single oral dose, and above; cited from earlier work
dogs = settings: single oral dose, and above; cited from earlier work
monkeys = settings: single oral dose; cited from earlier work
humans = settings: cited from earlier work
subjects with ALS [8] = settings: larger Phase III study; cited from earlier work
[9] = high-creatinine group, through 12 months

In the case of Nc1nc2ccc(OC(F)(F)F)cc2s1 [riluzole], the “headaches reported, subjects receiving riluzole vs those not receiving riluzole” value (ALS subjects [1]) is listed as “four times as many subjects” and the “effect on ALSFRS-R score” value (ALS subjects [2]) is listed as “has not demonstrated any effect”.

With CCCN[C@@H]1CCc2nc(N)sc2C1 [dexpramipexole, (6R)-2-amino-4,5,6,7-tetrahydro-6-(propylamino)-benzothiazole] the “ALSFRS-R score change vs placebo group (exploratory analysis with covariate adjustment)” value (subjects with ALS [3]; 300 mg group, Month 18) was “significant improvement”, the “ALSFRS-R subdomain: behaviors associated with bulbar function, decline over baseline” value (subjects with ALS [3]; 300 mg/day) was “less dramatic decline” and the “ALSFRS-R subdomain: behaviors associated with fine motor skills” value (subjects with ALS [3]; 300 mg/day) was “dose dependent improvement over baseline”. For the same molecule, the “combined assessment of function and survival (CAFS), least square means” value (subjects with ALS [3]; high-creatinine group (baseline serum creatinine > about 72 μmol/L), 150 mg twice daily, through 12 months) was 184.86, the “slope of decline on the ALS Functional Rating Scale (Revised), least square means” value (subjects with ALS [3]; high-creatinine group, 150 mg twice daily, through 12 months) was −0.925 and the “ALSFRS-R slope of decline, improvement in least square means between treatment and placebo” value (subjects with ALS [3]; [9]) was 18%. The “CAFS improvement in least square means between treatment and placebo” value (subjects with ALS [3]; [9]) was 19%, the “rate of mortality (Kaplan-Meier analysis)” value (subjects with ALS [3]; high-creatinine group, treatment group at 12 months) was 10.3% and the “decline in levels of serum creatinine” value (subjects with ALS [4]; 50 mg group) was 0.05. The “decline in levels of serum creatinine” value (subjects with ALS [4]; 150 mg group) was 0.06, the “decline in levels of serum creatinine” value (subjects with ALS [4]; 300 mg group) was 0.0 and the “combined assessment of function and survival (CAFS)” value (subjects with ALS [4]; Part Two, 300 mg daily dose, p=0.040) was “significantly reduced reduction”. The “mean decline in serum creatinine” value (subjects with ALS [4]; Part Two, daily dose 50 mg) was −0.12, the “mean decline in serum creatinine” value (subjects with ALS [4]; Part Two, daily dose 300 mg) was “zero” and the “relative change in the mean ALSFRS-R change from baseline, treated vs untreated” value (subjects with ALS [5]; definite diagnosis subgroup) was −8.3%. The “abs_mort_rate_change: absolute difference in mortality rate, treated vs untreated” value (subjects with ALS [5]; in vivo) was −22.6%, the “mort rate change: relative change in mortality rate, treated vs untreated” value (subjects with ALS [5]; in vivo) was −67.9% and the “mortality rate lower for treated patients” value (subjects with ALS [5]; in vivo) was 22.6 percentage points. The “score: combined score of mortality and ALSFRS-R treatment effects” value (subjects with ALS [5]; in vivo) was 0.343, the “trtd_mort_rate: mortality rate of treated patients” value (subjects with ALS [5]; in vivo) was 10.7% and the “relative change in the mean ALSFRS-R change from baseline, treated vs untreated” value (subjects with ALS [5]; subgroup mean_pr_interval>184.5, minimum group size 100) was −20.5%. The “abs_alsfrs_change: absolute difference in mean ALSFRS-R total scores, treated vs untreated” value (subjects with ALS [5]; subgroup min_pr_interval>195) was 5.623 points, the “alsfrs change: relative change in mean ALSFRS-R change from baseline, treated vs untreated” value (subjects with ALS [5]; subgroup min_pr_interval>195, minimum group size 50) was −26.6% and the “functional affinity difference between pramipexole and dexpramipexole for dopamine receptors” value (dopamine receptors) was 10,000-20,000 folds.

For CCCN[C@H]1CCc2nc(N)sc2C1 [pramipexole, (6S)-2-amino-4,5,6,7-tetrahydro-6-(propylamino)benzothiazole], the “human dose equivalent to the rodent lethal dose, 70 kilogram individual” value (rodents [6]) is listed as 500-850 milligrams, the “dose at which death occurred” value (rodents [7]) is listed as 70-105 milligrams per kilogram and the “dose at which vomiting occurred” value (dogs) is listed as no less than 0.0007 milligrams per kilogram. The “dose at which major excitation was displayed” value (monkeys) was 3.5 milligrams per kilogram, the “maximally tolerated dose for humans” value (humans; Boehringer Ingelheim product insert for Mirapex) was 4.5 milligrams per day and the “initial single dose not tolerated” value (humans; human subjects) was “greater than 0.20 milligrams”. For the same molecule, the “dose shown to cause somnolence” value (humans; humans, as low as) was 1.5 milligrams.

In the case of CC(=O)N1N=C(c2ccc(N)cc2)c2cc3c(cc2C[C@H]1C)OCO3 [talampanel], the “treatment effects in ALS” value (subjects with ALS [8]) is listed as “failed to show any treatment effects”.
